Experimental data: patent US20250115595A1, “INHIBITORS OF HYPOXIA-INDUCIBLE FACTORS” (The Johns Hopkins University, priority 2021, published 2025)

System: cytokine mRNAs
Experiment: RT-qPCR array of mouse cytokines and chemokines in Hepa1-6 tumors
Assay type: in vivo
Protocol: Total RNA from Hepa1-6 tumors was analyzed using the RT2 Profiler PCR Array of Mouse Cytokines and Chemokines (Qiagen, catalog number 330231 PAMM-150ZA) according to the manufacturer's instructions.

[1] = array of 84 cytokines and chemokines

In the case of `Brc1ccc2c(-c3csc(-c4c[nH]c5c(Br)cccc45)n3)c[nH]c2c1` [Compound 32-134D, 4-(6-bromo-1H-indol-3-yl)-2-(7-bromo-1H-indol-3-yl)thiazole], the “ll3 mRNA Fold Up- or Down-Regulation Test Group/Control Group” value (Hepa1-6 tumors, vs vehicle) was −2.77, the “ll3 mRNA X axis (Log2(fold change))” value (Hepa1-6 tumors, vs vehicle) was −1.47 and the “ll4 mRNA Fold Change Test Group/Control Group” value (Hepa1-6 tumors, vs vehicle) was 0.34. For the same molecule, the “ll4 mRNA Fold Up- or Down-Regulation Test Group/Control Group” value (Hepa1-6 tumors, vs vehicle) was −2.91, the “ll4 mRNA X axis (Log2(fold change))” value (Hepa1-6 tumors, vs vehicle) was −1.54 and the “ll5 mRNA Fold Change Test Group/Control Group” value (Hepa1-6 tumors, vs vehicle) was 0.42. For the same molecule, the “ll5 mRNA Fold Up- or Down-Regulation Test Group/Control Group” value (Hepa1-6 tumors, vs vehicle) was −2.39, the “ll5 mRNA X axis (Log2(fold change))” value (Hepa1-6 tumors, vs vehicle) was −1.26 and the “ll6 mRNA Fold Change Test Group/Control Group” value (Hepa1-6 tumors, vs vehicle) was 0.34. For the same molecule, the “ll6 mRNA Fold Up- or Down-Regulation Test Group/Control Group” value (Hepa1-6 tumors, vs vehicle) was −2.95, the “ll6 mRNA X axis (Log2(fold change))” value (Hepa1-6 tumors, vs vehicle) was −1.56 and the “ll7 mRNA Fold Change Test Group/Control Group” value (Hepa1-6 tumors, vs vehicle) was 0.97. The “ll7 mRNA Fold Up- or Down-Regulation Test Group/Control Group” value (Hepa1-6 tumors, vs vehicle) was −1.04, the “ll7 mRNA X axis (Log2(fold change))” value (Hepa1-6 tumors, vs vehicle) was −0.05 and the “ll9 mRNA Fold Change Test Group/Control Group” value (Hepa1-6 tumors, vs vehicle) was 0.27. The “ll9 mRNA Fold Up- or Down-Regulation Test Group/Control Group” value (Hepa1-6 tumors, vs vehicle) was −3.69, the “ll9 mRNA X axis (Log2(fold change))” value (Hepa1-6 tumors, vs vehicle) was −1.88 and the “ll10 mRNA Fold Change Test Group/Control Group” value (Hepa1-6 tumors, vs vehicle) was 0.23. For the same molecule, the “ll10 mRNA Fold Up- or Down-Regulation Test Group/Control Group” value (Hepa1-6 tumors, vs vehicle) was −4.42, the “ll10 mRNA X axis (Log2(fold change))” value (Hepa1-6 tumors, vs vehicle) was −2.14 and the “ll11 mRNA Fold Change Test Group/Control Group” value (Hepa1-6 tumors, vs vehicle) was 0.24. The “ll11 mRNA Fold Up- or Down-Regulation Test Group/Control Group” value (Hepa1-6 tumors, vs vehicle) was −4.12, the “ll11 mRNA X axis (Log2(fold change))” value (Hepa1-6 tumors, vs vehicle) was −2.04 and the “ll12a mRNA Fold Change Test Group/Control Group” value (Hepa1-6 tumors, vs vehicle) was 0.48. For the same molecule, the “ll12a mRNA Fold Up- or Down-Regulation Test Group/Control Group” value (Hepa1-6 tumors, vs vehicle) was −2.07, the “ll12a mRNA X axis (Log2(fold change))” value (Hepa1-6 tumors, vs vehicle) was −1.05 and the “ll12b mRNA Fold Change Test Group/Control Group” value (Hepa1-6 tumors, vs vehicle) was 0.29. The “ll12b mRNA Fold Up- or Down-Regulation Test Group/Control Group” value (Hepa1-6 tumors, vs vehicle) was −3.51, the “ll12b mRNA X axis (Log2(fold change))” value (Hepa1-6 tumors, vs vehicle) was −1.81 and the “ll13 mRNA Fold Change Test Group/Control Group” value (Hepa1-6 tumors, vs vehicle) was 0.32. For the same molecule, the “ll13 mRNA Fold Up- or Down-Regulation Test Group/Control Group” value (Hepa1-6 tumors, vs vehicle) was −3.14, the “ll13 mRNA X axis (Log2(fold change))” value (Hepa1-6 tumors, vs vehicle) was −1.65 and the “ll15 mRNA Fold Change Test Group/Control Group” value (Hepa1-6 tumors, vs vehicle) was 0.84. The “ll15 mRNA Fold Up- or Down-Regulation Test Group/Control Group” value (Hepa1-6 tumors, vs vehicle) was 1.19, the “ll15 mRNA X axis (Log2(fold change))” value (Hepa1-6 tumors, vs vehicle) was −0.25 and the “ll16 mRNA Fold Change Test Group/Control Group” value (Hepa1-6 tumors, vs vehicle) was 0.53. For the same molecule, the “ll16 mRNA Fold Up- or Down-Regulation Test Group/Control Group” value (Hepa1-6 tumors, vs vehicle) was −1.90, the “ll16 mRNA X axis (Log2(fold change))” value (Hepa1-6 tumors, vs vehicle) was −0.93 and the “ll17a mRNA Fold Change Test Group/Control Group” value (Hepa1-6 tumors, vs vehicle) was 0.33. For the same molecule, the “ll17a mRNA Fold Up- or Down-Regulation Test Group/Control Group” value (Hepa1-6 tumors, vs vehicle) was −3.00, the “ll17a mRNA X axis (Log2(fold change))” value (Hepa1-6 tumors, vs vehicle) was −1.59 and the “ll17f mRNA Fold Change Test Group/Control Group” value (Hepa1-6 tumors, vs vehicle) was 0.75. The “ll17f mRNA Fold Up- or Down-Regulation Test Group/Control Group” value (Hepa1-6 tumors, vs vehicle) was −1.33, the “ll17f mRNA X axis (Log2(fold change))” value (Hepa1-6 tumors, vs vehicle) was −0.41 and the “ll18 mRNA Fold Change Test Group/Control Group” value (Hepa1-6 tumors, vs vehicle) was 0.89. For the same molecule, the “ll18 mRNA Fold Up- or Down-Regulation Test Group/Control Group” value (Hepa1-6 tumors, vs vehicle) was −1.13, the “ll18 mRNA X axis (Log2(fold change))” value (Hepa1-6 tumors, vs vehicle) was −0.17 and the “ll21 mRNA Fold Change Test Group/Control Group” value (Hepa1-6 tumors, vs vehicle) was 0.29. The “ll21 mRNA Fold Up- or Down-Regulation Test Group/Control Group” value (Hepa1-6 tumors, vs vehicle) was −3.46, the “ll21 mRNA X axis (Log2(fold change))” value (Hepa1-6 tumors, vs vehicle) was −1.79 and the “ll22 mRNA Fold Change Test Group/Control Group” value (Hepa1-6 tumors, vs vehicle) was 0.37. The “ll22 mRNA Fold Up- or Down-Regulation Test Group/Control Group” value (Hepa1-6 tumors, vs vehicle) was −2.67, the “ll22 mRNA X axis (Log2(fold change))” value (Hepa1-6 tumors, vs vehicle) was −1.42 and the “ll23a mRNA Fold Change Test Group/Control Group” value (Hepa1-6 tumors, vs vehicle) was 0.44. For the same molecule, the “ll23a mRNA Fold Up- or Down-Regulation Test Group/Control Group” value (Hepa1-6 tumors, vs vehicle) was −2.25, the “ll23a mRNA X axis (Log2(fold change))” value (Hepa1-6 tumors, vs vehicle) was −1.17 and the “ll24 mRNA Fold Change Test Group/Control Group” value (Hepa1-6 tumors, vs vehicle) was 0.43. The “ll24 mRNA Fold Up- or Down-Regulation Test Group/Control Group” value (Hepa1-6 tumors, vs vehicle) was −2.34, the “ll24 mRNA X axis (Log2(fold change))” value (Hepa1-6 tumors, vs vehicle) was −1.23 and the “ll27 mRNA Fold Change Test Group/Control Group” value (Hepa1-6 tumors, vs vehicle) was 0.46. The “ll27 mRNA Fold Up- or Down-Regulation Test Group/Control Group” value (Hepa1-6 tumors, vs vehicle) was −2.19, the “ll27 mRNA X axis (Log2(fold change))” value (Hepa1-6 tumors, vs vehicle) was −1.13 and the “number of mRNAs with decreased expression” value [1] was 40 mRNAs. For the same molecule, the “number of mRNAs with increased expression” value [1] was 5 mRNAs.
